Tests used:
EZH2 enzyme complex = EZH2 enzyme complex (Homo sapiens (Human), UniProt Q15910); assay: Test on EZH2 inhibitory activity (TR-FRET); assay type: biochemical; conditions: EZH2 enzyme complex 25 ng/uL, histone H3 peptide 4 uM, SAM 2 uM, 300 min; read-out: IC50 of EZH2 inhibition
[1] = In vivo pharmacokinetic properties in mice; parameters: species or system mouse; conditions: male ICR mice; for F: intragastric 250 mg/kg vs intravenous 5 mg/kg; for CL / AUC(0-inf) / Cmax / Tmax / half-life: single intravenous 5 mg/kg and intragastric 250 mg/kg study; for AUC(0-inf) / Cmax / Tmax / half-life: mouse, plasma; for AUC(0-inf) / Cmax / Tmax: oral; for Cmax: read-out: Cmax; for Tmax: read-out: Tmax
Protocol: Male ICR mice were divided into different groups with 3 mice in each group, and single intravenous injection and single intragastric administration were conducted respectively. The compounds were formulated with 10% DMSO/90% (20% Captisol) to reach an appropriate concentration and then administered intravenously at 5 mg/kg. The compounds were formulated with 0.5% CMC-Na/0.1% Tween 80 (pH=3-4) to reach an appropriate concentration and then administered intragastrically at 250 mg/kg. Blood was taken at 5 min, 15 min, 30 min, 1 h, 2 h, 4 h, 6 h, 8 h and 24 h after administration, and then subjected to EDTA-K2 anticoagulation. The concentration of the compound in the plasma was quantitatively detected by an LC-MS/MS method.

Chain of EZH2 enzyme complex (Q15910 whole entry): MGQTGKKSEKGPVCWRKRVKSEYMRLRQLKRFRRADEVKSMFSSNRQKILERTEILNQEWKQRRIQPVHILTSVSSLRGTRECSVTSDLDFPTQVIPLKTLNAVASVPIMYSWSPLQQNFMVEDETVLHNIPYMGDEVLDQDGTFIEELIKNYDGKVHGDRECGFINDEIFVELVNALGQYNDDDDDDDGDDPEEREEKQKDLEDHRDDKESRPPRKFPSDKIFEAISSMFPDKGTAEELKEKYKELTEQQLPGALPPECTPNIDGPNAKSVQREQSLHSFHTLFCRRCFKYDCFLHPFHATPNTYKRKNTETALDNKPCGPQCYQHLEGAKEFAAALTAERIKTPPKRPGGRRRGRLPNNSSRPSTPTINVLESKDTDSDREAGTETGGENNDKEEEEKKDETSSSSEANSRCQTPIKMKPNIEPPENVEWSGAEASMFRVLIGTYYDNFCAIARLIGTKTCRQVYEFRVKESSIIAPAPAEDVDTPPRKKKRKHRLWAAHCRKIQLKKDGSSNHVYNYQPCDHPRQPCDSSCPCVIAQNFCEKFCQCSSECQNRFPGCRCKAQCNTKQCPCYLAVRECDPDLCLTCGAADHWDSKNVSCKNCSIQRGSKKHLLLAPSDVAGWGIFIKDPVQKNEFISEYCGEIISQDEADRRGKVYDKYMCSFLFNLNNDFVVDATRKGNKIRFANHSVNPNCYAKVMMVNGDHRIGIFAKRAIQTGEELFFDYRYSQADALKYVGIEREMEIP
Chain of EZH2 enzyme complex (O75530 whole entry partner): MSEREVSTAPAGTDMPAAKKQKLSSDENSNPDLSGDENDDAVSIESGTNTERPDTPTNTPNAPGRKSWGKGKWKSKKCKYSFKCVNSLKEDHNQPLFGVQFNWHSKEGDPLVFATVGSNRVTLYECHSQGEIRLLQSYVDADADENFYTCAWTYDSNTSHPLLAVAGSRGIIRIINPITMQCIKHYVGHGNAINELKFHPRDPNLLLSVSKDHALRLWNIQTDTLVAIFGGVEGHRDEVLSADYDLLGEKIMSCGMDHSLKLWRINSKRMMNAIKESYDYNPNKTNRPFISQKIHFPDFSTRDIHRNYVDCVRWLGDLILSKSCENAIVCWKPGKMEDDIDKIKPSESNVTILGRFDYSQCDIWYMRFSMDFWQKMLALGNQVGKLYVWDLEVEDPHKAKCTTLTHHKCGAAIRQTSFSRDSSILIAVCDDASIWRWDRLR
Chain of EZH2 enzyme complex (Q15022 whole entry partner): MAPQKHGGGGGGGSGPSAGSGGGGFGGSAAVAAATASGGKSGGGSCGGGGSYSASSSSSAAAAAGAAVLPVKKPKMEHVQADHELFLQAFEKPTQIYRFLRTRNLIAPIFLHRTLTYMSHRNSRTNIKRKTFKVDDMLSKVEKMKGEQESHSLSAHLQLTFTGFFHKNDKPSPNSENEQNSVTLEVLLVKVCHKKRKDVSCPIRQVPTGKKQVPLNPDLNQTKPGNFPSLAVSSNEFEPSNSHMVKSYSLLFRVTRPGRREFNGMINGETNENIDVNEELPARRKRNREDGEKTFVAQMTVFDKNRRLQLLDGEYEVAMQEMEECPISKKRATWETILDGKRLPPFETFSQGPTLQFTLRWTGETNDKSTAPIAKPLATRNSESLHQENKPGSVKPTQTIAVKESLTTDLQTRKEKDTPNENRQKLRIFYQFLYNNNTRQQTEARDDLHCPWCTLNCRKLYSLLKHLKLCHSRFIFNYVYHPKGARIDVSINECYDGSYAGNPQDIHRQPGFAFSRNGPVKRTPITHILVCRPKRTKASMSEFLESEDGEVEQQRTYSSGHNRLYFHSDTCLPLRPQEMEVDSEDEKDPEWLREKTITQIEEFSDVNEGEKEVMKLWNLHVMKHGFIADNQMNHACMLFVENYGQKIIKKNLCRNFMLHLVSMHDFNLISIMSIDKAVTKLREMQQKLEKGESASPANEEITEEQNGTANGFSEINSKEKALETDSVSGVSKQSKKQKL

Row | SMILES | IC50 (EZH2 enzyme complex) [nM] | other results
1 | Cc1cc(C)c(CNC(=O)c2cc(OC3CCC3)cc(OC3CCOCC3)c2C)c(=O)[nH]1 [Example 5, 5-cyclobutoxy-N-((4,6-dimethyl-2-oxo-1,2-dihydropyridin-3-yl)methyl)-2-methyl-3-((tetrahydro-2H-pyran-4-yl)oxy)benzamide] | 100 to 1000 | –
2 | CCN(c1cc(O[C@H]2C[C@H](CN3CCOCC3)C2)cc(C(=O)NCc2c(C)cc(C)[nH]c2=O)c1C)[C@H]1CC[C@H](N(C)CCOC)CC1 [Example 32, N-((4,6-dimethyl-2-oxo-1,2-dihydropyridin-3-yl)methyl)-3-(ethyl(trans-4-((2-methoxyethyl)(methyl)amino)cyclohexyl)amino)-2-methyl-5-(trans-3-(morpholinylmethyl)cyclobutoxy)benzamide] | 10 to 100 | –
3 | CCN(c1cc(O[C@H]2C[C@@H](N3CCOCC3)C2)cc(C(=O)NCc2c(C)cc(C)[nH]c2=O)c1Cl)C1CCOCC1 [Example 40, 2-chloro-N-((4,6-dimethyl-2-oxo-1,2-dihydropyridin-3-yl)methyl)-3-(ethyl(tetrahydro-2H-pyran-4-yl)amino)-5-(cis-3-morpholinylcyclobutoxy)benzamide] | 10 to 100 | –
4 | CCN(c1cc(O[C@H]2C[C@H](N3CCOCC3)C2)cc(C(=O)NCc2c(C)cc(C)[nH]c2=O)c1Cl)C1CCOCC1 [Example 41, 2-chloro-N-((4,6-dimethyl-2-oxo-1,2-dihydropyridin-3-yl)methyl)-3-(ethyl(tetrahydro-2H-pyran-4-yl)amino)-5-(trans-3-morpholinylcyclobutoxy)benzamide] | 10 to 100 | –
5 | CCN(c1cc(O[C@H]2C[C@@H](N3CCNCC3)C2)cc(C(=O)NCc2c(C)cc(C)[nH]c2=O)c1Cl)C1CCOCC1 [Example 42, 2-chloro-N-((4,6-dimethyl-2-oxo-1,2-dihydropyridin-3-yl)methyl)-3-(ethyl(tetrahydro-2H-pyran-4-yl)amino)-5-(cis-3-(piperazin-1-yl)cyclobutoxy)benzamide] | 10 to 100 | –
6 | CCN(c1cc(O[C@H]2C[C@H](N3CCNCC3)C2)cc(C(=O)NCc2c(C)cc(C)[nH]c2=O)c1Cl)C1CCOCC1 [Example 43, 2-chloro-N-((4,6-dimethyl-2-oxo-1,2-dihydropyridin-3-yl)methyl)-3-(ethyl(tetrahydro-2H-pyran-4-yl)amino)-5-(trans-3-(piperazin-1-yl)cyclobutoxy)benzamide] | 10 to 100 | –
7 | CCN(c1cc(O[C@H]2C[C@H](N3C[C@@H](C)O[C@@H](C)C3)C2)cc(C(=O)NCc2c(C)cc(C)[nH]c2=O)c1C)C1CCOCC1 [Example 44, N-((4,6-dimethyl-2-oxo-1,2-dihydropyridin-3-yl)methyl)-5-(trans-3-(cis-2,6-dimethylmorpholinyl)cyclobutoxy)-3-(ethyl(tetrahydro-2H-pyran-4-yl)amino)-2-methylbenzamide] | 10 to 100 | –
8 | CCN(c1cc(O[C@H]2C[C@H](N3C[C@@H](C)O[C@@H](C)C3)C2)cc(C(=O)NCc2c(C)cc(C)[nH]c2=O)c1C)C1CCN(CC(F)(F)F)CC1 [Example 50, N-((4,6-dimethyl-2-oxo-1,2-dihydropyridin-3-yl)methyl)-5-(trans-3-(cis-2,6-dimethylmorpholinyl)cyclobutoxy)-3-(ethyl (1-(2,2,2-trifluoroethyl)piperidin-4-yl)amino)-2-methylbenzamide] | 10 to 100 | –
9 | CCN(c1cc(O[C@H]2C[C@H](N3CC4CC(C3)O4)C2)cc(C(=O)NCc2c(C)cc(C)[nH]c2=O)c1C)C1CCOCC1 [Example 54, 5-(trans-3-(6-oxa-3-azabicyclo[3.1.1]heptan-3-yl)cyclobutoxy)-N-((4,6-dimethyl-2-oxo-1,2-dihydropyridin-3-yl)methyl)-3-(ethyl(tetrahydro-2H-pyran-4-yl)amino)-2-methylbenzamide] | 10 to 100 | –
10 | CCN(c1cc(O[C@H]2C[C@H](CN3CCOCC3)C2)cc(C(=O)NCc2c(C)cc(C)[nH]c2=O)c1F)C1CCOCC1 [Example 61, N-((4,6-dimethyl-2-oxo-1,2-dihydropyridin-3-yl)methyl)-3-(ethyl(tetrahydro-2H-pyran-4-yl)amino)-2-fluoro-5-(trans-3-(morpholinomethyl)cyclobutoxy)benzamide] | > 1000 | –
11 | CCN(c1cc(O[C@H]2C[C@H](N3CCOCC3)C2)cc(C(=O)NCc2c(C)cc(C)[nH]c2=O)c1C)C1CCOC1 (stereo partly drawn) [Example 64, N-((4,6-dimethyl-2-oxo-1,2-dihydropyridin-3-yl)methyl)-3-(ethyl(tetrahydrofuran-3-yl)amino)-2-methyl-5-(trans-3-morpholin-4-ylcyclobutoxy)benzamide] | 10 to 100 | –
12 | CCN(c1cc(O[C@H]2C[C@H](N3CCCCC3)C2)cc(C(=O)NCc2c(C)cc(C)[nH]c2=O)c1Cl)C1CCOCC1 [Example 66, 2-chloro-N-((4,6-dimethyl-2-oxo-1,2-dihydropyridin-3-yl)methyl)-3-(ethyl(tetrahydro-2H-pyran-4-yl)amino)-5-(trans-3-(piperidin-1-yl)cyclobutoxy)benzamide] | – | F [1]: 38.3%; CL [1]: 53.5 ± 13.44 mL/min/lg; AUC(0-inf) [1]: 31200 ng·h/mL; Cmax [1]: 16700 ± 4970 ng/mL; Tmax [1]: 0.42 ± 0.14 h; half-life [1]: 5.05 ± 0.75 h
13 | CCN(c1cc(C2CC2CN2CCN(C)CC2)cc(C(=O)NCc2c(C)cc(C)[nH]c2=O)c1C)[C@H]1CC[C@H](N(C)CCOC)CC1 (stereo partly drawn) [Example 81, N-((4,6-dimethyl-2-oxo-1,2-dihydropyridin-3-yl)methyl)-3-(ethyl(trans-4-((2-methoxyethyl)(methyl)amino)cyclohexyl)amino)-2-methyl-5-(2-((4-methylpiperazin-1-yl)methyl)cyclopropyl)benzamide] | 10 to 100 | –
14 | CCN(c1cc(C2CC2CN2CCOCC2)cc(C(=O)NCc2c(C)cc(C)[nH]c2=O)c1Cl)C1CCOCC1 (stereo not drawn) [Example 84, 2-chloro-N-((4,6-dimethyl-2-oxo-1,2-dihydropyridin-3-yl)methyl)-3-(ethyl(tetrahydro-2H-pyran-4-yl)amino)-5-(2-(morpholinylmethyl)cyclopropyl)benzamide] | 100 to 1000 | –
15 | CCN(c1cc(O[C@H]2C[C@H](N3CCOCC3)C2)cc(C(=O)NCc2c(C)cc(C)[nH]c2=O)c1C)C1CC2CCC(C1)O2 (stereo partly drawn) [Example 86] | – | F [1]: 29.5%; CL [1]: 65.5 ± 1.60 mL/min/lg; AUC(0-inf) [1]: 18800 ± 4560 ng·h/mL; Cmax [1]: 21000 ± 8040 ng/mL; Tmax [1]: 0.25 h; half-life [1]: 4.19 ± 3.07 h
16 | CCN(c1cc(O[C@H]2C[C@H](N3CCC(C)CC3)C2)cc(C(=O)NCc2c(OC)cc(C)[nH]c2=O)c1Cl)C1CCOCC1 [Example 89] | 10 to 100 | –
17 | CCN(c1cc(O[C@H]2C[C@H](N3CCC(C)CC3)C2)cc(C(=O)NCc2c(C)cc(C(F)(F)F)[nH]c2=O)c1Cl)C1CCOCC1 [Example 90] | > 1000 | –
